Reference: patent US4772684A, “Peptides affecting blood pressure regulation” (Triton Biosciences, Inc., priority 1988, dated 1988)

Columns and labels:
[1] = system: isolated rabbit aorta strips; test: Saralasin block of AII contraction and peptide-stimulated contraction in muscle strips; type: cell-based; conditions: saralasin 10^-8 M; AII 10^-9 M
dog femoral vein = test: Angiotensin II-caused relaxation of isolated dog venous strips; type: cell-based; conditions: 10^6 M (so in the source); angiotensin II 3×10^-7 M
Method: Peptide 2 of this invention was tested in vitro, using an assay of isolated dog venous strips mounted in a muscle bath. Isolated segments of the dog femoral vein (n=2) were mounted in organ baths for measurement of isometric force generation. The conditions were as described in Example 3. The vascular segments were made to contract in response to prostaglandin F2a (8.5×10^-7 M). After the contraction reached a plateau, angiotensin II (3×10^-7 M) was added to the organ bath and the venous segments relaxed to approximately 50% of the response to prostaglandin F2a. This relaxation response to angiotensin II was inhibited 100% by saralasin ([…]) and by Peptide 2 (10^-5 M).

rat hypertension model = test: Blood pressure in anesthetized rats (rat hypertension model); type: in vivo; conditions: constant infusion 1 mg/min; angiotensin II 1 ng
Method: Peptide 2 of this invention was tested in vivo, using a rat hypertension model. Adult male rats (n=4) were anesthetized with sodium pentobarbital (50 mg/kg) and the left jugular vein was cannulated for infusion of drugs. Bolus injections of angiotensin II were delivered via the same venous catheter. The right carotid artery was cannulated for measurement of blood pressure. Injection of angiotensin II (1 ng) caused an increase in mean arterial blood pressure (^~ 50 mm Hg).

## CNCC(=O)N[C@@H](CCCN=C(N)N)C(=O)N[C@H](C(=O)N[C@@H](Cc1ccc(O)cc1)C(=O)N[C@H](C(=O)N[C@@H](Cc1cnc[nH]1)C(=O)N1CCC[C@H]1C(=O)N[C@@H](C)C(=O)O)C(C)C)C(C)C [saralasin]
[1]
  Effect on AII contraction: decreased AII contraction
Dog femoral vein
  Inhibition of relaxation response to angiotensin II: 100%
Rat hypertension model
  Effect on pressor activity of angiotensin II: inhibited the pressor activity of angiotensin II
